Assay results taken from patent US4789542A, “Radioiodinated glucose analogues for use as imaging agents” (The United States of America as represented by the United …, priority 1986, dated 1988).
Read-outs that look alike come from different tables or passages of the source.

Test: Distribution of radioactivity in tissues of female rats after intravenous administration
Assay type: in vivo
Conditions: rat; for Brain/Blood ratio / Distribution of radioactivity, Brain / Heart/Blood ratio / tissue uptake at 5 min / tissue uptake at 0.25 h / tissue uptake at 0.5 h / tissue uptake at 1 h: mean; for tissue uptake at 5 min / tissue uptake at 0.25 h / tissue uptake at 0.5 h / tissue uptake at 1 h: iv
Experimental: A test radiopharmaceutical methyl-2-deoxy-2-(E)-[^125 I]-iodovinyl-2,4,6-0-triacetyl-β-D-altropyranoside 6 was prepared to establish that a deoxy substituted iodovinyl carbohydrate could be delivered to the brain in significant levels with prolonged retention. One novel aspect of the invention was the scission of an anhydro sugar with the Grignard reagent. This technique was chosen because a variety of 2-deoxy iodovinyl carbohydrates could be prepared depending on the position of the anhydro group within the pyranose ring. The process of the synthesis is shown in the drawing.
The distribution of radioactivity in tissues of female rats at 5 minutes, 15 minutes, 30 minutes and 60 minutes after intravenous administration of the iodinated compound is shown in the following table. The level of accumulation of radioactivity in the brain after injection of this agent was a significant 1.65 percent dose/g at 5 minutes but the blood levels were also high resulting in blood ratios of 1.6/1 at 5 minutes.

Brain/Blood ratio (5 min): 1.5666
Distribution of radioactivity, Brain (5 min): 1.6525 percent dose/g
Heart/Blood ratio (5 min): 1.0776
Brain/Blood ratio (15 min): 1.2775
Heart/Blood ratio (15 min): 1.1490
Brain/Blood ratio (30 min): 1.1035
Heart/Blood ratio (30 min): 1.0809
Brain/Blood ratio (60 min (1 hr)): 1.1087
Heart/Blood ratio (60 min (1 hr)): 1.0408
Distribution of radioactivity, Brain (60 min (1 hr), 60 min): 0.7237 percent dose/g
Brain retention at 60 minutes compared with the peak uptake at 5 minutes (60 min vs 5 min): 50%
tissue uptake at 5 min (blood, 5 min, read-out: Distribution of radioactivity, Blood): 1.05 %ID/g
tissue uptake at 0.25 h (blood, 15 min, read-out: Distribution of radioactivity, Blood): 0.933 %ID/g
tissue uptake at 0.5 h (blood, 30 min, read-out: Distribution of radioactivity, Blood): 0.0037 %ID/g
tissue uptake at 1 h (blood, 60 min (1 hr), read-out: Distribution of radioactivity, Blood): 0.653 %ID/g
tissue uptake at 5 min (brain, 5 min, read-out: Distribution of radioactivity, Brain): 1.65 %ID/g
tissue uptake at 0.25 h (brain, 15 min, read-out: Distribution of radioactivity, Brain): 1.19 %ID/g
tissue uptake at 0.5 h (brain, 30 min, read-out: Distribution of radioactivity, Brain): 0.891 %ID/g
tissue uptake at 1 h (brain, 60 min (1 hr), read-out: Distribution of radioactivity, Brain): 0.72 %ID/g
tissue uptake at 5 min (kidney, 5 min, read-out: Distribution of radioactivity, Kidney): 1.55 %ID/g
tissue uptake at 0.25 h (kidney, 15 min, read-out: Distribution of radioactivity, Kidney): 1.57 %ID/g
tissue uptake at 0.5 h (kidney, 30 min, read-out: Distribution of radioactivity, Kidney): 1.7 %ID/g
tissue uptake at 1 h (kidney, 60 min (1 hr), read-out: Distribution of radioactivity, Kidney): 1.57 %ID/g
tissue uptake at 5 min (liver, 5 min, read-out: Distribution of radioactivity, Liver): 1.39 %ID/g
tissue uptake at 0.25 h (liver, 15 min, read-out: Distribution of radioactivity, Liver): 1.37 %ID/g
tissue uptake at 0.5 h (liver, 30 min, read-out: Distribution of radioactivity, Liver): 1.23 %ID/g
tissue uptake at 1 h (liver, 60 min (1 hr), read-out: Distribution of radioactivity, Liver): 1.05 %ID/g
tissue uptake at 5 min (lung, 5 min, read-out: Distribution of radioactivity, Lung): 1.19 %ID/g
tissue uptake at 0.25 h (lung, 15 min, read-out: Distribution of radioactivity, Lung): 1.03 %ID/g
tissue uptake at 0.5 h (lung, 30 min, read-out: Distribution of radioactivity, Lung): 0.833 %ID/g
tissue uptake at 1 h (lung, 60 min (1 hr), read-out: Distribution of radioactivity, Lung): 0.663 %ID/g
tissue uptake at 5 min (thyroid, 5 min, read-out: Distribution of radioactivity, Thyroid): 20.6 %ID/g
tissue uptake at 0.25 h (thyroid, 15 min, read-out: Distribution of radioactivity, Thyroid): 18.9 %ID/g
tissue uptake at 0.5 h (thyroid, 30 min, read-out: Distribution of radioactivity, Thyroid): 25.7 %ID/g
tissue uptake at 1 h (thyroid, 60 min (1 hr), read-out: Distribution of radioactivity, Thyroid): 33.5 %ID/g
Retention in the brain (up to 60 min): prolonged retention in the brain
Compound: CO[C@@H]1O[C@H](COC(C)=O)[C@@H](OC(C)=O)[C@@H](OC(C)=O)[C@@H]1/C=C/[125I] [methyl-2-deoxy-2-(E)-[^125 I]-iodovinyl-2,4,6-0-triacetyl-β-D-altropyranoside]
Stability to in vivo deiodination (from low thyroid accumulation) (up to 60 min): demonstrated the stability of this agent to in vivo deiodination
